Literature values in patent US6642219B1, “Progestogen-antiprogestogen regimens” (Akzo Nobel N.V., priority 1997, dated 2003).
Blank lines part the entries; values can stand above or below the compound they belong to.

Tests used:
progesterone receptor = biological target: T1, progesterone receptor (Homo sapiens, UniProt P06401)
T1 sequence (P06401 1-933): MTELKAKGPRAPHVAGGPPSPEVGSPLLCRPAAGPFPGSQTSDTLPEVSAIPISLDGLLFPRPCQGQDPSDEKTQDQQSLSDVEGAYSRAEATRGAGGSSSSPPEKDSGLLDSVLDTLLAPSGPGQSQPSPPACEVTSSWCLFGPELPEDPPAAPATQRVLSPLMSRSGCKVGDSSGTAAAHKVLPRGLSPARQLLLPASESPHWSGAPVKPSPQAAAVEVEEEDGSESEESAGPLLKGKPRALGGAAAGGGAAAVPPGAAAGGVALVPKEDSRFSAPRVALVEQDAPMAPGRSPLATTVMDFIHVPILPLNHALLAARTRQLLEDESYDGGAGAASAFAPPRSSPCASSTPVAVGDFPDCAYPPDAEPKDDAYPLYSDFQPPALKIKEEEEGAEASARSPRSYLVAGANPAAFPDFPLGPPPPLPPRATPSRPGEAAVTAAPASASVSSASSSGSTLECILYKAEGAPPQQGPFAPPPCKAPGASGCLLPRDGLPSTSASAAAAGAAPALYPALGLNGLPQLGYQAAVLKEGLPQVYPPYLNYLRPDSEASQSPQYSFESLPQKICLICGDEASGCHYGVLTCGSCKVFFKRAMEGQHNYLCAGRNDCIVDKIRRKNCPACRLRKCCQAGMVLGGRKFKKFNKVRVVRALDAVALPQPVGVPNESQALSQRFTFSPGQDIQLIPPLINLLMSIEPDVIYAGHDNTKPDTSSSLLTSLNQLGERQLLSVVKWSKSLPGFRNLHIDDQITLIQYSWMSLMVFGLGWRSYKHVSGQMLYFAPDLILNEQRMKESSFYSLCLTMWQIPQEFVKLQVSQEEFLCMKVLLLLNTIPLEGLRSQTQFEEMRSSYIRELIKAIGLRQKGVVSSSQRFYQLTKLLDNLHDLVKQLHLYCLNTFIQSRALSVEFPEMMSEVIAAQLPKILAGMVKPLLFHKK

[1] = in vivo
[2] = based on practically applied doses

SMILES: C#C[C@]1(O)CC[C@H]2[C@@H]3CCC4=CC(=O)CC[C@@H]4[C@H]3C(=C)C[C@@]21CC [3-keto-desogestrel]
progestogenic activity, compared among each other (progestogenic activity; [2]): relatively equipotent

SMILES: C#C[C@]1(O)C=C[C@H]2[C@@H]3CCC4=CC(=O)CC[C@@H]4[C@H]3CC[C@@]21CC [Gestodene]
progestogenic potency relative to levonorgestrel, desogestrel and 3-keto-desogestrel (progestogenic activity; [2]): approximately 1.5 times

SMILES: C#CC1(O)CC[C@H]2[C@@H]3CCC4=CC(=O)CC[C@@H]4[C@H]3CC[C@@]21CC (stereo partly drawn) [Norgestrel]
progestogenic potency relative to levonorgestrel (progestogenic activity): about one-half

anti-progestogen potency compared with RU 486 (progesterone receptor): somewhat more potent
half-life [1]: 50 h
SMILES: C[C@@H]1C[C@@H]2C(=C3CCC(=O)C=C31)[C@@H](c1ccc(N(C)C)cc1)C[C@@]1(C)[C@H]2CC[C@@]12CCCO2 [Org 31710, (6α,11β,17β)-11-(4-dimethylaminophenyl)-6-methyl-4′,5′-dihydrospiro-[estra-4,9-diene-17,2′-(3′H)-furan]-3-one]

anti-progestogen potency compared with RU 486 (progesterone receptor): somewhat more potent
half-life [1]: approximately 15 hours
SMILES: CC(=O)c1ccc(C2CC3(C)C(CCC34OCC=C4C)C3CCC4=CC(=O)CCC4=C23)cc1 (stereo not drawn) [Org 33628, (11β,17α)-11-(4-acetylphenyl)-17,23-epoxy-19,24-dinorchola-4,9,20-trien-3-one]

half-life [1]: ~20 h
SMILES: CC#C[C@]1(O)CC[C@H]2[C@@H]3CCC4=CC(=O)CCC4=C3[C@@H](c3ccc(N(C)C)cc3)C[C@@]21C [RU 486, (11β,17β)-11-[4-(demethylamino)-phenyl]-17-hydroxy-17-(1-propynyl)esta-4,9diene-3-one]

SMILES: C#C[C@]1(O)CC[C@H]2[C@@H]3CCC4=CCCC[C@@H]4[C@H]3C(=C)C[C@@]21CC [desogestrel, 13-ethyl-11-methylene-18,19-di-nor-17α-pregn-4en-20-yn-17-ol]
progestogenic activity, compared among each other (progestogenic activity; [2]): relatively equipotent
